Data on one substance can be found in publication PMC5290737, “Surface mediated cooperative interactions of drugs enhance mechanical forces for antibiotic action” (Scientific Reports, 2017).

Read-outs that look alike come from different tables or passages of the source.

Assay [1] deals with vancomycin-susceptible receptor (VSR). As to the kind of experiment: Cantilever surface stress assay, antibiotic binding to surface-bound VSR. The text has this: (§1) To probe different pathways of signal-transduction central to the efficacy of recognition mechanisms and therapeutic agents, we used cantilever force-based technology. Because of its nanometre strain sensitivity, this technology can directly measure the smallest changes in mechanical strain caused by specific antibiotic binding. The principles of force transduction and measurements are well established[18][19][20] and many studies focused on cantilever sensors have been published. Unlike conventional methods such as 1H–NMR spectroscopy, enzyme-linked immunosorbent assays (ELISA)[29] or surface plasmon resonance (SPR)[30] which measure optical signatures of chemical binding, cantilever technology has the capacity to resolve forces at the level of individual hydrogen bonds, making it uniquely suited to provide important insight into force transduction mechanisms, such as cell wall strain in response to antibiotic binding. Moreover, in contrast to direct current or low-frequency signals, which cannot probe beyond electrical double layers formed by screening salts, mechanical signaling is sensitive to ligands even when they are located at distance of ~1 nm or more from the sensor surface (Fig. 1d). Measurements were performed using cantilevers functionalized with self-assembled monolayers (SAM) of VSR, VRR or reference polyethylene glycol (PEG) (see methods & materials, Supplementary Information). The specificity of mechanical signaling was achieved by performing measurements in differential mode, where the bending response of the reference PEG-coated cantilevers, (known to reduce nonspecific drug adsorption[8][14][34]) was subtracted from VSR- and VRR-coated cantilever signals (see cantilever measurement procedure, method section).
(§2) Thus far, we have discussed the impact of near-membrane layer on the association kinetics, mechanical force transduction, specificity of molecular recognition and microbial susceptibility. To gain mechanistic insight (Fig. 7a,b), we averaged measurements for each drug-target interaction over four separate chips and the results are summarized in Fig. 7c,d. […] The mechanical signaling response follows an s-shaped curve undergoing its steepest rise at N ~1/Ksurf before reaching a plateau when the binding sites are fully occupied (Fig. 7c,d). To calculate Ksurf, we used equation (2)[14], based on the conventional Hill adsorption model.
(§3) Here, Ksurf is raised to the power n to ensure that it maintains the dimension of concentration as n varies. Setting n = 1 yields the Langmuir isotherm where the reactions occur independently, while n > 1 corresponds to positive co-operative polyvalent interactions and n < 1 is a measure of negative co-operativity. In Fig. 7c,d, we find that the mechanical response at VSR levels off at 50 μM concentration for all antibiotics. In contrast, for the drug-resistant VRR a concentration of more than 1000 μM of Van, Rist or CE was required to reach indistinguishable maximum signals. The outcome of the fit using three parameters (n, Ksurf and σmax) is summarized in Supplementary Fig. 2. The calculated Ksurf for Ori binding to VSR is 40 ± 10 nM, which is 25 times stronger than for Van where Ksurf is 1.0 ± 0.3 μM. The Ksurf of Ori against VRR is 70 ± 10 nM, an astonishing 11,000 times stronger than for Van where Ksurf is 800 ± 300 μM. As a further measurement control and to confirm the accuracy of surface binding affinity, we used a commercially available SPR method (Fig. 7e,f and Supplementary SPR sensor chip functionalization procedure), where the detection of ligands is at a single planar metal surface.
(§4) The modified cantilever chip was mounted in a sealed liquid cell. The alignment of each light source onto the free end of each cantilever was confirmed by heating liquid chamber to 1 °C rise. […]

The test system of assay [2] is vancomycin-resistant receptor (VRR). Description: Cantilever surface stress assay, antibiotic binding to surface-bound VRR.
From the text: as §1, §2, §3, §4

Assay [3] relates to methicillin-susceptible Staphylococcus aureus (MSSA) ATCC 29213. Description: MIC by broth microdilution (CLSI M07-A8), with PS80. The assay is classed as cell-based. The conditions noted are these: MSSA ATCC 29213, with PS80. As for the experimental part: Determination of MIC values to methicillin-susceptible Staphylococcus aureus (MSSA).
Minimum Inhibitory Concentration (MIC) is defined as the lowest concentration of antibacterial agent required to inhibit growth of a microorganism after incubation. The antibiotics vancomycin (Van) and ristomycin (Rist) were obtained from Sigma-Aldrich while chloroeremomycin (CE) and oritavancin (Ori) were obtained from the Medicine Company Inc., U.S.A. To prepare antibiotic stock solutions for MICs assay, 5 mg/ml of each drug was dissolved in water containing an appropriate volume of 0.002% polysorbate-80 or PS80 obtained from Sigma-Aldrich which corresponds to 20 µM to eliminate nonspecific interactions of drugs to surfaces particularly for Ori which is known to bind to glass and plastics13. Microbiological broth with PS80 maintained at 20 µM was used in the drug dilution steps until the required final (assay) concentration. Diluted concentrations of each drug were assayed by adding an inoculum of methicillin-susceptible Staphylococcus aureus (MSSA) ATCC 29213 cells and the MIC determined by broth microdilution according to Clinical Laboratory Standards Institute (CLSI) methodology M07-A8 (CLSI 2009a)14. The results as shown in Supplementary Table S2 for each antibiotic against clinical isolate of MSSA ATCC 29213 strains conducted in the presence of […]
PS80 are within the quality control ranges defined in the guideline15. […]
(In broth dilution the organism is exposed to a series of concentrations in liquid medium.)

In assay [4] the target is vancomycin-susceptible receptor (VSR). To be noted: ref. 4 (Rist), ref. 3 (CE), supplementary references, read-out: Ksurf SPR; cited from earlier work.
For assay [5], the target named is vancomycin-resistant receptor (VRR). To be noted: ref. 3 (Van), ref. 5 (Rist), ref. 4 (CE), supplementary references, read-out: Ksurf SPR; cited from earlier work.
In a further assay the target is VSR (Ac-VSR) in solution. To be noted: VSR in solution; ref. 1 (Van, Rist), ref. 7 (CE), ref. 2 (Ori), supplementary references; read-out: Ksurf Solution; cited from earlier work.
In another assay the target is VRR in solution. The conditions noted are these: ref. 1 (Van), ref. 6 (Rist), ref. 8 (CE), ref. 2 (Ori), supplementary references, read-out: Ksurf Solution; cited from earlier work.
The conditions of assay [6]: ligand-ligand dissociation constant in solution; ref. 2 (Van, CE, Ori), ref. 5 (Rist), supplementary references; read-out: K1 Solution (complex aggregation constant); cited from earlier work.
Assay [7] concerns vancomycin resistant E. faecalis (VRE). The conditions noted are these: absence of polysorbate-80; ref. 2 (Van), ref. 5 (Rist, CE), ref. 9 (Ori), supplementary references; cited from earlier work.
In assay [8] the test system is vancomycin susceptible E. faecalis (VSE). To be noted: absence of polysorbate-80; ref. 9 (Van, CE, Ori), ref. 10 (Rist), supplementary references; cited from earlier work.

What is called MIC is the smallest concentration in the dilution series that meets the test's criterion for growth inhibition. A high value points to a less susceptible organism. As to ristomycin, the Kd was 0.9 ± 0.5 µM in assay [1] (VSR on cantilever, fit of equation (2), pH 7.4 sodium phosphate buffer, read-out: Ksurf Cantilever (surface equilibrium dissociation constant)); 32 ± 17 µM in assay [2] (VRR on cantilever, fit of equation (2), pH 7.4 sodium phosphate buffer, read-out: Ksurf Cantilever (surface equilibrium dissociation constant)); 0.2 µM in assay [4]; 6.7 µM in [5]; 1.7 µM at VSR (Ac-VSR) in solution; 3850 µM at VRR in solution. Besides, the Kd in assay [6] was 3000 µM. Besides, the “maximum stress data, Mean” value was found to be 34.5 in [1] (VSR, 4 chips, one-way ANOVA table S5) and 7.5 in [2] (VRR, 4 chips, one-way ANOVA table S4). The “Mean difference of stress, VSR versus VRR” value in assay [1] (independent samples t-test, 4 chips, table S6) was found to be 27.0. Also, in assay [2] (10 μM antibiotic against VRR), the compressive surface stress is reported as ~ 2 mNm^−1. In addition, the “concentration required to reach indistinguishable maximum signals” value in assay [2] (VRR) was “more than 1000 μM”. In addition, the minimum inhibitory concentration (MIC) in [3] came to 8.0 mg/L; in assay [3] (converted from mg/l), 3.69 µM. In addition, in assay [7], the “MIC VRE” value was 512 mg/L. In [8], the “MIC VSE” value was 12.5 mg/L.
